Data from BigSolDB 2.1.

Cl.OC(CCCN1CCCCC1)(c1ccccc1)c1ccccc1
solubility (mole fraction)
Settings	278.15 K	283.15 K	288.15 K	293.15 K	298.15 K	303.15 K	308.15 K	313.15 K	318.15 K	323.15 K
in DMAc	0.00189	0.00221	0.00254	0.00305	0.00357	0.00407	0.00457	0.00525	0.00596	0.00697
in DMF	0.00285	0.00316	0.00357	0.00408	0.00466	0.00515	0.00615	0.00688	0.00811	0.00923
in DMSO	–	–	–	0.0121	0.0134	0.0148	0.0167	0.019	0.0213	0.0242
in NMP	0.00427	0.00492	0.0056	0.00616	0.00725	0.00826	0.00921	0.0104	0.012	0.0141
in acetic acid	–	–	–	0.00434	0.00601	0.00965	0.016	0.0263	0.0428	0.0632
in acetonitrile	0.000127	0.00016	0.000224	0.000306	0.000412	0.000497	0.000623	0.000747	0.000892	0.00105
in ethanol	0.00161	0.00196	0.00227	0.00275	0.00336	0.00405	0.00485	0.00585	0.00706	0.00867
in methanol	0.00929	0.0109	0.0127	0.0152	0.0177	0.0207	0.0245	0.0285	0.0337	0.0397
in n-butanol	0.000548	0.000685	0.000907	0.00113	0.00137	0.00169	0.00206	0.00247	0.00304	0.00398
in n-pentanol	0.000228	0.000359	0.000562	0.00075	0.000981	0.00121	0.00164	0.00212	0.00265	0.00327
in n-propanol	0.00115	0.00151	0.00199	0.0025	0.00255	0.00309	0.00364	0.00454	0.00575	0.00708
in water	0.000935	0.001	0.00112	0.00125	0.00135	0.0015	0.00165	0.00173	0.00193	0.00216
